Among the data in US20050197338A1, “Substituted pyrazole urea compounds for the treatment of inflammation” (priority 2003, published 2005) are IC50 values, retold here.

This test deals with T1, human IKK-2 (rhIKK-2 homodimer) (Homo sapiens, UniProt O14920).
T1 construct: FLAG (DYKDDDDKD) (C); made in house; host or cells: insect cells (baculovirus, pFastBac)
T1 sequence (O14920 1-756): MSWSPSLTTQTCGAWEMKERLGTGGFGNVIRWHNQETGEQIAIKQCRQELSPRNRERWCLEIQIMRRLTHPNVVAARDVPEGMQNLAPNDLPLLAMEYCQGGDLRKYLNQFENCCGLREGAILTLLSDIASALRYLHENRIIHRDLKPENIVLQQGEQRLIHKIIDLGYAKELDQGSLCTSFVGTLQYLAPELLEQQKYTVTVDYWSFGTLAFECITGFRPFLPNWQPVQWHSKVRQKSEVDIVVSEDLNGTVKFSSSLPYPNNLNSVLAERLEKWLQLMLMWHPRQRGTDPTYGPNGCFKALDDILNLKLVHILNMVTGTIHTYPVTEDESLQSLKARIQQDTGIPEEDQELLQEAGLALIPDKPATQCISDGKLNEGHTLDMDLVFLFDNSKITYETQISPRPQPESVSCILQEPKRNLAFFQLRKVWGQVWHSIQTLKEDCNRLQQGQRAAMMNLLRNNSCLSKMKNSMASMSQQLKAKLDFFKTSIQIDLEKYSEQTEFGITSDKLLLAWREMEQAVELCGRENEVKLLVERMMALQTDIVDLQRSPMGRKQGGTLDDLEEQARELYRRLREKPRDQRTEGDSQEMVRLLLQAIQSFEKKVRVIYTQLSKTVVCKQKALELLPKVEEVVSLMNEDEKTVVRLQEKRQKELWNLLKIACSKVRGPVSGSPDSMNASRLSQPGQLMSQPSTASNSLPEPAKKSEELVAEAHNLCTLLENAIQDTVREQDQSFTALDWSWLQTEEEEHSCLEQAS
The test is described as follows: IKK-2 Resin Enzyme Assay (Human IKK-2 Enzyme Assay). Format: biochemical. The following applies: human IKK-2, resin enzyme assay; read-out: IC50 (μM) hIKK-2. In outline:
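C-terminally FLAG-tagged human IKK-2 homodimer, baculovirus-expressed in insect cells and anti-FLAG purified. Reaction mix: 5 μM biotinylated IκBα peptide (Ser32/Ser36 region), 1 μM ATP with [γ-33P]ATP, 2 mM MgCl2, 2 mM MnCl2, 10 mM NaF, 1 mM DTT, 25 mM HEPES pH 7.6. Incubated 30 min at 25 °C; IC50 derived.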

As to `Cc1cc(-c2ccccc2O)ccc1-n1cc(NC(N)=O)c(C(N)=O)n1` [Example 235, 4-[(aminocarbonyl)amino]-1-(2′-hydroxy-3-methyl-1,1′-biphenyl-4-yl)-1H-pyrazole-3-carboxamide], the IC50 came out at 13.2 µM. For the compound `N#CCOc1ccccc1-c1ccc(-n2cc(NC(N)=O)c(C(N)=O)n2)cc1C(F)(F)F` [Example 238, 4-[(aminocarbonyl)amino]-1-[2′-(cyanomethoxy)-2-(trifluoromethyl)-1,1′-biphenyl-4-yl]-1H-pyrazole-3-carboxamide], the half-inhibitory concentration (IC50) was found to be 1.11 µM.

For `NC(=O)Nc1nn(-c2ccc(-c3ccc(F)cc3F)cc2)cc1C(N)=O` [Example 113], the IC50 came out at 0.355 µM.

Consider `NC(=O)Nc1cn(-c2cccc(-c3ccc(F)c(F)c3)c2)nc1C(N)=O` [Example 349, 4-[(aminocarbonyl)amino]-1-(3′,4′-difluoro-1,1′-biphenyl-3-yl)-1H-pyrazole-3-carboxamide], for which the IC50 is more than 20 µM. `NC(=O)Nc1cn(-c2ccc(-c3ccc(CO)cc3)cc2)nc1C(N)=O` [Example 38, 4-[(aminocarbonyl)amino]-1-[4′-(hydroxymethyl)-1,1′-biphenyl-4-yl]-1H-pyrazole-3-carboxamide]: the IC50 turned out to be 0.83 µM. As for `NC(=O)Nc1cn(-c2ccc([S+]([O-])C3CCCCC3)cc2)nc1C(N)=O` (stereo not drawn) [Example 191, 1-(3-carbamoyl-1-(4-(cyclohexylsulfinyl)phenyl)-1H-pyrazol-4-yl)urea], the 50% inhibitory concentration (IC50) is 2.54 µM. In the case of `NC(=O)Nc1cn(-c2ccc(-c3ccc(C(=O)NCc4ccc(F)cc4)c(F)c3)cc2)nc1C(N)=O` [Example 155, 4-[(aminocarbonyl)amino]-1-(3′-fluoro-4′-{[(4-fluorobenzyl)amino]carbonyl}-1,1′-biphenyl-4-yl)-1H-pyrazole-3-carboxamide], the IC50 was determined as 0.45 µM. For the compound `CCOc1cc(-n2cc(NC(N)=O)c(C(N)=O)n2)ccc1-c1cccc(O)c1` [Example 230, 4-[(aminocarbonyl)amino]-1-(2-ethoxy-3′-hydroxy-1,1′-biphenyl-4-yl)-1H-pyrazole-3-carboxamide], the IC50 was found to be 2.02 µM.

With `CC(C)(C)c1ccc(-c2cccc(-n3cc(NC(N)=O)c(C(N)=O)n3)c2)cc1` [Example 362, 4-[(aminocarbonyl)amino]-1-(4′-tert-butyl-1,1′-biphenyl-3-yl)-1H-pyrazole-3-carboxamide], the IC50 was more than 20 µM.

For the compound `CNC(=O)c1ccc(-c2ccc(-n3cc(NC(N)=O)c(C(N)=O)n3)cc2)cc1F` [Example 152, 4-[(aminocarbonyl)amino]-1-{3′-fluoro-4′-[(methylamino)carbonyl]-1,1′-biphenyl-4-yl}-1H-pyrazole-3-carboxamide], the IC50 came to 0.11 µM.

For `CCc1ccc(-c2cccc(-n3cc(NC(N)=O)c(C(N)=O)n3)c2)cc1` [Example 342, 4-[(aminocarbonyl)amino]-1-(4′-ethyl-1,1′-biphenyl-3-yl)-1H-pyrazole-3-carboxamide], the IC50 is more than 20 µM. In the case of `NC(=O)Nc1cn(-c2cccc(Br)c2)nc1C(N)=O` [Example 20, 4-[(aminocarbonyl)amino]-1-(3-bromophenyl)-1H-pyrazole-3-carboxamide] it was 0.61 µM. On to `Cc1cc(-n2cc(NC(N)=O)c(C(N)=O)n2)ccc1-c1cccc(O)c1` [Example 239, 1-(3′-hydroxy-2-methyl-biphenyl-4-yl)-4-ureido-1H-pyrazole-3-carboxylic acid amide], for which the half-inhibitory concentration (IC50) stood at 0.161 µM. Turning to `CN(Cc1ccc(F)cc1)C(=O)c1ccc(-c2ccc(-n3cc(NC(N)=O)c(C(N)=O)n3)cc2)cc1F` [Example 158, 4-[(aminocarbonyl)amino]-1-(3′-fluoro-4′-{[(4-fluorobenzyl)(methyl)amino]carbonyl}-1,1′-biphenyl-4-yl)-1H-pyrazole-3-carboxamide], the IC50 was found to be 4.04 µM.

On to `Cc1cc(-n2cc(NC(N)=O)c(C(N)=O)n2)ccn1` [Example 322, 4-[(aminocarbonyl)amino]-1-(2-methylpyridin-4-yl)-1H-pyrazole-3-carboxamide], for which the IC50 was 2.19 µM. With `NC(=O)Nc1cn(-c2cccc(-c3ccc[nH]3)c2)nc1C(N)=O` [Example 68], the half-maximal inhibitory concentration (IC50) turned out to be 0.55 µM.

As for `CCOC(=O)c1ccc(-c2ccc(-n3cc(NC(N)=O)c(C(N)=O)n3)cc2)cc1` [Example 147, ethyl 4′-{3-(aminocarbonyl)-4-[(aminocarbonyl)amino]-1H-pyrazol-1-yl}-1,1′-biphenyl-4-carboxylate], the IC50 was 6.01 µM. Turning to `NC(=O)Nc1cn(-c2ccc(Sc3ccncc3)cc2)nc1C(N)=O` [Example 206, 1-(3-carbamoyl-1-(4-(pyridin-4-ylthio)phenyl)-1H-pyrazol-4-yl)urea], the IC50 was found to be 0.0514 µM.

For `Cc1ccc(-c2cccc(-n3cc(NC(N)=O)c(C(N)=O)n3)c2)cc1N` [Example 77, 4-[(aminocarbonyl)amino]-1-(3′-amino-4′-methyl-1,1′-biphenyl-3-yl)-1H-pyrazole-3-carboxamide], the IC50 was 0.8 µM.

With `NC(=O)Nc1cn(-c2ccc(-c3cccc(OCc4cccnc4)c3)cc2)nc1C(N)=O` [Example 170, 4-[(aminocarbonyl)amino]-1-[3′-(pyridin-3-ylmethoxy)-1,1′-biphenyl-4-yl]-1H-pyrazole-3-carboxamide], the IC50 was 1.58 µM. Take `Cc1cc(-n2cc(NC(N)=O)c(C(N)=O)n2)ccc1-c1ccc(F)cc1OCC#N` [Example 244, 1-(2′-Cyanomethoxy-4′-fluoro-2-methyl-biphenyl-4-yl)-4-ureido-1H-pyrazole-3-carboxylic acid amide]: the IC50 turned out to be 0.866 µM. For the compound `Cc1cc(-n2cc(NC(N)=O)c(C(N)=O)n2)ccc1-c1ccccc1O` [Example 240, 1-(2′-Hydroxy-2-methyl-biphenyl-4-yl)-4-ureido-1H-pyrazole-3-carboxylic acid amide], the IC50 is 2.02 µM. In the case of `NC(=O)Nc1cn(-c2ccc([S+]([O-])C3CCCC3)cc2)nc1C(N)=O` (stereo not drawn) [Example 283, 1-(3-carbamoyl-1-(4-(cyclopentylsulfinyl)phenyl)-1H-pyrazol-4-yl)urea], the IC50 was determined as 0.431 µM. Consider `CCN(CC)C(=O)CCc1cccc(-c2ccc(-n3cc(NC(N)=O)c(C(N)=O)n3)cc2)c1` [Example 382, 4-[(aminocarbonyl)amino]-1-{3′-[3-(diethylamino)-3-oxopropyl]-1,1′-biphenyl-4-yl}-1H-pyrazole-3-carboxamide], for which the half-inhibitory concentration (IC50) came out at 0.9 µM.

As to `CNC(=O)COc1ccc(F)cc1-c1ccc(-n2cc(NC(N)=O)c(C(N)=O)n2)cc1` [Example 256, 4-[(aminocarbonyl)amino]-1-{5′-fluoro-2′-[2-(methylamino)-2-oxoethoxy]-1,1′-biphenyl-4-yl}-1H-pyrazole-3-carboxamide], the IC50 stood at 1.07 µM.

`NC(=O)Nc1nn(-c2ccc(-c3cccc(C(F)(F)F)c3)cc2)cc1C(N)=O` [Example 131]: the half-inhibitory concentration (IC50) is 3.15 µM.

Take `NC(=O)Nc1cn(-c2cccc(-c3ccccc3C(F)(F)F)c2)nc1C(N)=O` [Example 366, 4-[(aminocarbonyl)amino]-1-[2′-(trifluoromeethyl)-1,1′-biphenyl-3-yl]-1H-pyrazole-3-carboxamide]: the IC50 is more than 20 µM. On to `Cc1noc(C)c1-c1cccc(-n2cc(NC(N)=O)c(C(N)=O)n2)c1` [Example 70, 4-[(aminocarbonyl)amino]-1-[3-(3,5-dimethylisoxazol-4-yl)phenyl]-1H-pyrazole-3-carboxamide], for which the IC50 was 0.88 µM. Consider `NC(=O)Nc1cn(-c2cccc(Sc3ccccc3F)c2)nc1C(N)=O` [Example 198, 1-(1-(3-(2-fluorophenylthio)phenyl)-3-carbamoyl-1H-pyrazol-4-yl)urea], for which the IC50 amounted to 6.52 µM. Take `NC(=O)Nc1cn(-c2ccc(S(=O)(=O)C3CCCC3)cc2)nc1C(N)=O` [Example 287, 1-(3-carbamoyl-1-(4-(cyclopentylsulfonyl)phenyl)-1H-pyrazol-4-yl)urea]: the IC50 stood at 0.187 µM. On to `Cc1ccc(-n2cc(NC(N)=O)c(C(N)=O)n2)cc1` [Example 18, 4-[(aminocarbonyl)amino]-1-(4-methylphenyl)-1H-pyrazole-3-carboxamide], for which the IC50 is 0.3 µM.

On to `COc1ccc(CNC(=O)CCc2cccc(-c3ccc(-n4cc(NC(N)=O)c(C(N)=O)n4)cc3)c2)c(OC)c1` [Example 380, 4-[(aminocarbonyl)amino]-1-(3′-{3-[(2,4-dimethoxybenzyl)amino]-3-oxopropyl}-1,1′-biphenyl-4-yl)-1H-pyrazole-3-carboxamide], for which the IC50 turned out to be 1.54 µM. Turning to `CC(C#N)Oc1cccc(-c2ccc(-n3cc(NC(N)=O)c(C(N)=O)n3)cc2)c1` (stereo not drawn) [Example 169, 4-[(aminocarbonyl)amino]-1-[3′-(1-cyanoethoxy)-1,1′-biphenyl-4-yl]-1H-pyrazole-3-carboxamide], the IC50 turned out to be 1.83 µM.

By IC50 is commonly meant the concentration at which inhibition is half-maximal.
